According to patent US5889026A, “4-hydroxy-piperodine derivatives” (Hoffmann-La Roche Inc., priority 1996, dated 1999):
Structures can show the parent of a compound that is named as a salt. Where two headings read alike, the source gives them in different places.

Columns and labels:
[1] = target: T1, 3H-Ro 25-6981 binding (NMDA receptor) (Rattus norvegicus, UniProt P35439+Q00960); assay: 3H-Ro 25-6981 binding; settings: rat brain membranes (minus cerebellum and medulla oblongata); 5 nM 3H-Ro 25-6981; 2 hours at 4° C., pH 7.4
T1 construct: NR1 splice forms mixed

[2] = target: 3H-Prazosine binding; assay: 3H-Prazosine binding; settings: rat brain membranes (minus cerebellum and medulla oblongata); 0.2 nM 3H-Prazosine; 30 minutes at room temperature, pH 7.4
Protocol: 3H-Prazosine binding Male Fullinsdorf albino rats weighing between 150-200 g were used. Membranes were prepared by homogenization of the whole brain minus cerebellum and medulla oblongata with a Plytron (10.000 rpm, 30 seconds), in 25 volumes of a cold Tris-HCl 50 mM, EDTA 10 mM, pH 7.1 buffer. The homogenate was centrifuged at 48.000 g for 10 minutes at 4° C. The pellet was resuspended using the Polytron in the same volume of buffer and the homogenate was incubated at 37° C. for 10 minutes. After centrifugation, the pellet was homogenized in the same buffer and frozen at -80° C. for at least 16 hours but not more than 10 days. For the binding assay the homogenate was thawed at 37° C., centrifuged and the pellet was washed three times as above in a Tris-HCl 5 mM, pH 7.4 cold buffer. The final pellet was resuspended in the same buffer and used at a final concentration of […]. 3H-Prazosine binding experiments were performed using a Tris-HCl 50 mM, pH 7.4 buffer. For displacement experiments 0.2 nM of 3H-Prazosine were used and non specific binding was measured using […] of Chlorpromazine. The incubation time was 30 minutes at room temperature and the assay was stopped by filtration on Whatman GF/B glass fiber filters (Unifilter-96, Canberra Packard S. A., Zurich, Switzerland). The filters were washed 5 times with cold buffer. The radioactivity on the filter was counted on a Packard Top-count microplate scintillation counter after addition of […] of microscint 40 (Canberra Packard S. A., Zurich, Switzerland). The effects of compounds were measured using a minimum of 8 concentrations and repeated at least once. The pooled normalized values were analyzed using a non-linear regression calculation program which provide IC50 with their relative upper and lower 95% confidence limits (RS1, BBN, USA).

[3] = target: T2, NR1C + NR2B (NMDAR1C-NMDAR2B) (Rattus norvegicus, UniProt P35439+Q00960); assay: Electrophysiology on recombinant NMDA receptors, NR1C + NR2B, Xenopus laevis oocytes; assay type: cell-based; settings: read-out: Electrophysiology, % block by 0.1 μM, NR1C + NR2B
T2 construct: expressed in transfected cells; host or cells: Xenopus laevis oocytes injected with mRNA (1:1 mixture)
Protocol: (§1) Oocytes of South African frogs (Xenopus laevis) were used for expressing either a combination of the NMDAR1C and NMDAR2A subunits or the NMDAR1C and NMDAR2B subunits. Approximately 3 fmol of a 1:1 mixture of the respective MRNA species were injected into every oocyte. Four to five days later, the ion current through the NMDA receptor channels was measured in voltage clamp experiments (see Methfessel et al., 1986, Pflugers Arch. 407:577 for the methods of oocyte expression and voltage-clamping). The membrane potential was clamped to -80 mV and the receptors were activated by applying a modified Ringer,s solution containing the NMDA-receptor agonists L-asparatate (Asp) and glycine (Gly). Different agonist concentrations were chosen for either subunit combination to account for the different agonist sensitivities of the two types of receptors (70 mM Asp plus 2.5 mM Gly for NMDAR1C-NMDAR2A and 15 mM Asp plus 0.2 mM Gly for NMDAR1C-NMDAR2B). The agonists were applied for 15 s intervals once every 2.5 min by rapid superfusion of the oocyte with agonist containing solution and the amplitude of the agonist-evoked current was measured immediately before the end of each application. After a series of initial control applications, the antagonist to be tested was added to both, the basal Ringer,s and the agonist containing solution. The antagonist concentration applied to oocytes expressing the NR2A subunit was 10 mmol/l, whereas 0.1 mmol/l were applied to the NR2B expressing oocytes. Four to eight oocytes were tested for every compound and NMDA receptor subtype. Oocytes were exposed to the compounds for 5 to 30 min depending on the time needed for reaching an equilibrium block of the NMDA receptor current. For every oocyte the decrease of the current amplitude was expressed as a percentage of the control current measured before application of the compound.

[4] = target: T3, NR1C + NR2A (NMDAR1C-NMDAR2A) (Rattus norvegicus, UniProt Q00959); assay: Electrophysiology on recombinant NMDA receptors, NR1C + NR2A, Xenopus laevis oocytes; assay type: cell-based; settings: read-out: Electrophysiology, % block by 10 μM, NR1C + NR2A
T3 construct: expressed in transfected cells; host or cells: Xenopus laevis oocytes injected with mRNA (1:1 mixture)
Protocol: as §1

[5] = 0.1 μM compound, Xenopus laevis oocytes, -80 mV, mean of four to eight oocytes
[6] = 10 μM compound, Xenopus laevis oocytes, -80 mV, mean of four to eight oocytes

T1 sequence (Q00960 27-1482, other chains not shown): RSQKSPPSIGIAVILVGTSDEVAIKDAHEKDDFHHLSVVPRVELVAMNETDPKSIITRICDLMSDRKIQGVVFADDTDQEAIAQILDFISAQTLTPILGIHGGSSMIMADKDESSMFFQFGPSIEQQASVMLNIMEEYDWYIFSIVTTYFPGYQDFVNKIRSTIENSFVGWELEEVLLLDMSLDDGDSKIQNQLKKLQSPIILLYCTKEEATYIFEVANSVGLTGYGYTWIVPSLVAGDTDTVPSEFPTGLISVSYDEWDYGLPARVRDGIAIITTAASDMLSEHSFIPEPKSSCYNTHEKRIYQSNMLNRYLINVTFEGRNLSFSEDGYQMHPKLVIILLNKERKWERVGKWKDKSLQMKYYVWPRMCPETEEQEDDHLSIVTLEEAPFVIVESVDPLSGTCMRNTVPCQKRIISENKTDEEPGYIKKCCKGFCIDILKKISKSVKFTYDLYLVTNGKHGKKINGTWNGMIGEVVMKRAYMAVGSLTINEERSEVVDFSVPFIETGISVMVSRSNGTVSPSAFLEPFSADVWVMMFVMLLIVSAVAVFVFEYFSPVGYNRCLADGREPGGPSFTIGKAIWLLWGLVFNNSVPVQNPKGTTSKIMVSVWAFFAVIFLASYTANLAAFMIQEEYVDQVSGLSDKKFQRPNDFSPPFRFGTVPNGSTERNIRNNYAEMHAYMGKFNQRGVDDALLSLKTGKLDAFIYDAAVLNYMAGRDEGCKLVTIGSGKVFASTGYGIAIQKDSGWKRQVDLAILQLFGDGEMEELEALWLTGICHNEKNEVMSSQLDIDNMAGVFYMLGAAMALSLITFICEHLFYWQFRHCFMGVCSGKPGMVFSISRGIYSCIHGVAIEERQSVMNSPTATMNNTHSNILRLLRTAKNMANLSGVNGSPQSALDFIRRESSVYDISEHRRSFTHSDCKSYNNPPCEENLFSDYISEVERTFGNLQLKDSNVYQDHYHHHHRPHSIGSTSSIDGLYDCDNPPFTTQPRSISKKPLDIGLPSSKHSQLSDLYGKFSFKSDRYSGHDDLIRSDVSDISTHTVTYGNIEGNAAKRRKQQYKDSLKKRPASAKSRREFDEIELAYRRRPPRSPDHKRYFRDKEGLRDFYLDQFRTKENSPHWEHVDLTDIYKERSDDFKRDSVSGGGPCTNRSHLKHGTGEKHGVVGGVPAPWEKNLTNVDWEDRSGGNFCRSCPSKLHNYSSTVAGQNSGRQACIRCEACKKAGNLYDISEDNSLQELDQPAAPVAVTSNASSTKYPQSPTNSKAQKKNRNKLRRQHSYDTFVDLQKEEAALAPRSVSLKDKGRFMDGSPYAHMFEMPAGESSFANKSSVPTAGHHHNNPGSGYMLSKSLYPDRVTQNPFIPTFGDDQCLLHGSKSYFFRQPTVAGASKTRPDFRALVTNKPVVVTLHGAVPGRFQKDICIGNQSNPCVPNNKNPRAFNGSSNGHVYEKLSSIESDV
T2 sequence (Q00960 27-1482, other chains not shown): as above
T3 sequence (Q00959 23-1464, other chains not shown): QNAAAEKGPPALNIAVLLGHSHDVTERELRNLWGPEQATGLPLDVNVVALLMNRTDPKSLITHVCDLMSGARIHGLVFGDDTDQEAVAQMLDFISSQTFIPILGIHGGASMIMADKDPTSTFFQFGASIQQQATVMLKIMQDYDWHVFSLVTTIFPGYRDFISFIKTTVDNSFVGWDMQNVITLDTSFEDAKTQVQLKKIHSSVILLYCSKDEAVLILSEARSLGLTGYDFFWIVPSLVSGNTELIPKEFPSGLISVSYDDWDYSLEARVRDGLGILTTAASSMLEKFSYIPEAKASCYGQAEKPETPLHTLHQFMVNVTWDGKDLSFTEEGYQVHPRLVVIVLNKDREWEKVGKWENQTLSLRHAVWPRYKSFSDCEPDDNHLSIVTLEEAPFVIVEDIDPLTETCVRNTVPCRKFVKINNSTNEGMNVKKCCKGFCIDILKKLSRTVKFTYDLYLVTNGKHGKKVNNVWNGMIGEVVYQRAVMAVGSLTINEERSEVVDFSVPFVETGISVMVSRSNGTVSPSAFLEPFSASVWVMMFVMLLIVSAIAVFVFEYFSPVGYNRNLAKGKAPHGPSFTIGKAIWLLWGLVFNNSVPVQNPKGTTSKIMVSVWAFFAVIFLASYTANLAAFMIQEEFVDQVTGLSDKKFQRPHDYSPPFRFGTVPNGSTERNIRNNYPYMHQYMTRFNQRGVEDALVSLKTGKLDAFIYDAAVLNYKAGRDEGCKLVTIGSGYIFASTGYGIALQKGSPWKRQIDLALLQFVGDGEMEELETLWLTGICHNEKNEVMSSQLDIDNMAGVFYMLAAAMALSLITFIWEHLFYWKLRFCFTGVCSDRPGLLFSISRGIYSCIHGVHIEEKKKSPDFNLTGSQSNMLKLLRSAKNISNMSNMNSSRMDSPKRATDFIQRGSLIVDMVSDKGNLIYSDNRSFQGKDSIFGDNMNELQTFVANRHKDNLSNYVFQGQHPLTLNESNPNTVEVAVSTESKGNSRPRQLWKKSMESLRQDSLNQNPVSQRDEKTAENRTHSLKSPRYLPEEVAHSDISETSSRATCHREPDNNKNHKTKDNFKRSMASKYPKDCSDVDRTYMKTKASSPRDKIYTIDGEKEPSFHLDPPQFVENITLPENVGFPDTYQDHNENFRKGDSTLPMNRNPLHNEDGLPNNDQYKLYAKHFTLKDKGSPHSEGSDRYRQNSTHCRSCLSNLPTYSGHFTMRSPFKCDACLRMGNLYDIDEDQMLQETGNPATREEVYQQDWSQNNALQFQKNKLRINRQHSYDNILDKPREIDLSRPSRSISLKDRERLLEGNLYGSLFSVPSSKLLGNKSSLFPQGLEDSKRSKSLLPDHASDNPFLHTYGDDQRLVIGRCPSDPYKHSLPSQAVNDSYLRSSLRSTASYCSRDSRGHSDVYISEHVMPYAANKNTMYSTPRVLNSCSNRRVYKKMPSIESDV

Cc1ccc(CC2(O)CCN(C/C=C/c3ccc(O)cc3)CC2)cc1 [V/41, (E)-1-[3-(4-Hydroxy-phenyl)-allyl]-4-(4-methyl-benzyl)-piperidin-4-ol]
IC50 [1]: 8 nM | IC50 [2]: 3000 nM

Cc1ccc(CC2(O)CCN(CCOc3ccc(NS(C)(=O)=O)cc3)CC2)cc1 [E/11, N-(4-{2-[4-hydroxy-4-(4-methyl-benzyl)-piperidin-1-yl]-ethoxy}-phenyl)-methanesulfonamide hydrochloride]
inhibition at 0.1 µM [3]: 91% | IC50 [1]: 30 nM | IC50 [2]: 5000 nM | inhibition at 10 µM [4]: 27%

CS(=O)(=O)Nc1ccc(OCCN2CCC(O)(Cc3ccc(F)cc3)CC2)cc1 [F/12, N-(4-{2-[4-(4-fluoro-benzyl)-4-hydroxy-piperidin-1-yl]-ethoxy}-phenyl)-methanesulfonamide]
IC50 [1]: 60 nM | IC50 [2]: 6000 nM

O=C(NCCN1CCC(O)(Cc2ccccc2)CC1)c1ccc(O)cc1 [Q/36, N-[2-(4-Benzyl-4-hydroxy-piperidin-1-yl)-ethyl]-4-hydroxy-benzamide]
IC50 [1]: 10 nM | IC50 [2]: 5000 nM

Cc1ccc(CC2(O)CCN(CC(O)Cc3ccc(O)c(F)c3)CC2)cc1 (racemic) [W/94, (RS)-1-[3-(3-Fluoro-4-hydroxy-phenyl)-2-hydroxy-propyl]-4-(4-methyl-benzyl)-piperidin-4-ol hydrochloride]
IC50 [1]: 20 nM | IC50 [2]: 6600 nM

Oc1ccc(CC(O)CN2CCC(O)(Cc3ccc(Cl)cc3)CC2)cc1 (racemic) [N/32, (RS)-4-(4-Chloro-benzyl)-1-[2-hydroxy-3-(4-hydroxy-phenyl)-propyl]-piperidin-4-ol]
inhibition at 0.1 µM [3, 5]: 81% | IC50 [1]: 40 nM | IC50 [2]: 9200 nM | inhibition at 10 µM [4, 6]: 19%

Cc1ccc(CC2(O)CCN(CCOc3ccc(O)cc3)CC2)cc1 [C/9, 1-[2-(4-Hydroxy-phenoxy)-ethyl]-4-(4-methyl-benzyl)-piperidin-4-ol]
inhibition at 0.1 µM [3, 5]: 88% | IC50 [2]: 3500 nM | inhibition at 10 µM [4, 6]: 31%

Oc1ccc(CC(O)CN2CCC(O)(Cc3ccccc3)CC2)cc1 (racemic) [L/30, (RS)-4-Benzyl-1-[2-hydroxy-3-(4-hydroxy-phenyl)-propyl]-piperidin-4-ol]
IC50 [1]: 60 nM | IC50 [2]: 7400 nM

O=C(CN1CCC(O)(Cc2ccccc2)CC1)Nc1ccc(O)cc1 [J/23, 2-(4-Benzyl-4-hydroxy-piperidin-1-yl)-N-(4-hydroxy-phenyl)-acetamide]
IC50 [1]: 70 nM | IC50 [2]: 20000 nM

Cc1ccc(CC2(O)CCN(CC(=O)Nc3ccc(O)cc3)CC2)cc1 [K/24, 2-[4-Hydroxy-4-(4-methyl-benzyl)-piperidin-1-yl]-N-(4-hydroxy-phenyl)-acetamide]
inhibition at 0.1 µM [3, 5]: 83% | IC50 [1]: 40 nM | IC50 [2]: 30000 nM | inhibition at 10 µM [4, 6]: 10%

O=C(NCCCN1CCC(O)(Cc2ccccc2)CC1)c1ccc(O)cc1 [S/38, N-[3-(4-Benzyl-4-hydroxy-piperidin-1-yl)-propyl]-4-hydroxy-benzamide]
IC50 [1]: 16 nM | IC50 [2]: 7300 nM

Oc1ccc(OCCN2CCC(O)(Cc3ccc(F)cc3)CC2)cc1 [D/10, 4-(4-Fluoro-benzyl)-1-[2-(4-hydroxy-phenoxy)-ethyl]-piperidin-4-ol]
IC50 [1]: 40 nM | IC50 [2]: 3000 nM

Cc1ccc(CC2(O)CCN(CCCNC(=O)c3ccc(O)cc3)CC2)cc1 [T/39, 4-Hydroxy-N-[3-[4-hydroxy-4-(4-methyl-benzyl)-piperidin-1-yl]-propyl]-benzamide]
IC50 [1]: 9 nM | IC50 [2]: 2300 nM

CS(=O)(=O)Nc1ccc(OCCN2CCC(O)(Cc3ccc(Cl)cc3)CC2)cc1 [G/13, N-(4-{2-[4-(4-Chloro-benzyl)-4-hydroxy-piperidin-1-yl]-ethoxy}-phenyl)-methanesulfonamide]
IC50 [1]: 30 nM | IC50 [2]: 9000 nM

Cc1ccc(CC2(O)CCN(CC(O)Cc3ccc(O)cc3)CC2)cc1 (racemic) [M/31, (RS)-1-[2-Hydroxy-3-(4-hydroxy-phenyl)-propyl]-4-(4-methyl-benzyl)-piperidin-4-ol]
inhibition at 0.1 µM [3, 5]: 89% | IC50 [1]: 20 nM | IC50 [2]: 9700 nM | inhibition at 10 µM [4, 6]: 10%

Oc1ccc(OC[C@@H](O)CN2CCC(O)(Cc3ccccc3)CC2)cc1 [B/5, (S)-4-Benzyl-1-[2-hydroxy-3-(4-hydroxy-phenoxy)-propyl]-piperidin-4-ol]
IC50 [1]: 60 nM | IC50 [2]: 4000 nM

CS(=O)(=O)Nc1ccc(OCCCN2CCC(O)(Cc3ccc(F)cc3)CC2)cc1 [H/14, N-(4-{3-[4-(4-Fluoro-benzyl)-4-hydroxy-piperidin-1-yl]-propoxy}-phenyl)-methanesulfonamide]
IC50 [1]: 40 nM | IC50 [2]: 1800 nM

Cc1ccc(CC2(O)CCN(CCCOC(=O)c3ccc(O)cc3)CC2)cc1 [P/35, 4-Hydroxy-benzoic acid 3-[4-hydroxy-4-(4-methyl-benzyl)-piperidin-1-yl]-propylester]
IC50 [1]: 3 nM | IC50 [2]: 260 nM

Cc1ccc(CC2(O)CCN(CC(O)COc3ccc(O)cc3)CC2)cc1 (racemic) [A/1, (RS)-1-[2-Hydroxy-3-(4-hydroxy-phenoxy)-propyl]-4-(4-methyl-benzyl)-piperidin-4-ol hydrochloride]
inhibition at 0.1 µM [3]: 96% | IC50 [1]: 15 nM | IC50 [2]: 1500 nM | inhibition at 10 µM [4]: 29%

Cc1ccc(CC2(O)CCN(CCNC(=O)c3ccc(O)cc3)CC2)cc1 [R/37, 4-Hydroxy-N-[2-[4-hydroxy-4-(4-methyl-benzyl)-piperidin-1-yl]-ethyl]-benzamide]
inhibition at 0.1 µM [3, 5]: 42% | IC50 [1]: 6 nM | IC50 [2]: 5300 nM | inhibition at 10 µM [4, 6]: 8%

Cc1ccc(CC2(O)CCN(C(C)COc3ccc(O)cc3)CC2)cc1 (stereo not drawn) [I/22, 1-[2-(4-Hydroxy-phenoxy)-1-methyl-ethyl]-4-(4-methyl-benzyl)-piperidin-4-ol]
IC50 [1]: 40 nM | IC50 [2]: 2500 nM

Cc1ccc(CC2(O)CCN(CCOC(=O)c3ccc(O)cc3)CC2)cc1 [O/34, 4-Hydroxy-benzoic acid 2-[4-hydroxy-4-(4-methyl-benzyl)-piperidin-1-yl]ethylester]
IC50 [1]: 10 nM | IC50 [2]: 800 nM
